{"source": "patent US5208251A", "about": "“Styryl pyrazoles, isoxazoles and analogs thereof having activity as 5-lipoxygenase inhibitors, pharmaceutical compositions and methods of use therefor” (Warner-Lambert Company, priority 1989, dated 1993)", "data": [{"tested_on": "cyclooxygenase", "test": "ARBC whole cell cyclooxygenase assay (RBL-1 cells, PGF2α)", "format": "cell-based, rat", "conditions": "RBL-1 intact cell cyclooxygenase, PGF2α by RIA, A23187 5 μM", "description": "ARBL/ARBC Whole Cell 5-Lipoxygenase and Cyclooxygenase Assays\nThe rat basophilic leukemia cell line (RBL-1) was obtained from the American Type Culture Collection (Rockville, Md.).\nRadioimmuno assay (RIA) kits of LTB4 and PGF2α were obtained from Amersham (Arlington Heights, IL) and Seragen (Boston, Mass.) respectively.\nAll tissue culture media were obtained from GIBCO (Grand Island, N.Y.).\nRBL-1 cells were grown in culture (suspension) in Eagle's minimum essential medium supplemented with fetal bovine serum and 1:100 antibiotic-antimycotic mixture at 37° C. in an incubator supplied with air-5% carbon dioxide. Cells were harvested by centrifugation. They were washed with cold phosphate buffered saline pH 7.4 (PBS; NaCl, 7.1 g; Na2 HPO4, 1.15 g; KH2 PO4, 0.2 g; and KCl, 0.2 g/L). […] Calcium ionophore A23187 (5 μM) was added and cells were incubated for seven minutes at 37° C. The reaction was stopped by chilling the tubes in ice for ten minutes. Cells were separated by centrifugation and the supernatant was stored at -20° . Aliquots (100 μl) were analyzed for LTB4 and PGF2α using radioimmuno assay kits as provided by the supplier.", "units": {"IC50": "µM"}, "values": [{"smiles": "COC(=O)Cn1nc(C=Cc2cc(OC)c(O)c(OC)c2)cc1C", "note": "[Example 10H, 3-[β-(4'-Hydroxy-3',5'-dimethoxyphenyl)ethenyl]-5-methyl-1H-pyrazole-1-acetic acid, methyl ester]", "IC50": "> 30"}, {"smiles": "COC(=O)Cn1nc(C=Cc2cc(C(C)(C)C)c(O)c(C(C)(C)C)c2)cc1C", "note": "[Example 10G-1]", "IC50": "> 30"}, {"smiles": "Cc1cc(C=Cc2cc(Cl)cc(Cl)c2O)on1", "note": "[Example 32J, 5-[β-(2'-Hydroxy-3',5'-dichlorophenyl)ethenyl]-3-methylisoxazole]", "IC50": "> 30"}, {"smiles": "CCOC(=O)Cn1nc(C)cc1/C=C/c1cc(OC)c(O)c(OC)c1", "note": "[Example 10D, (E)-5-[β-(4'-Hydroxy-3',5'-dimethoxyphenyl)ethenyl]-3-methyl-1H-pyrazole-1-acetic acid, ethyl ester]", "IC50": "> 30"}, {"smiles": "COC(=O)C(=Cc1cc(OC)c(O)c(OC)c1)c1cc(C)no1", "note": "[Example 40, 5-[α-Carbomethoxy-β-(4'-hydroxy-3',5'-dimethoxyphenyl)ethenyl]-3-methylisoxazole]", "IC50": "> 25"}, {"smiles": "COc1cc(C=Cc2cc(C)n(CC(=O)O)n2)cc(OC)c1O", "note": "[Example 10N, 3-[β-(4'-Hydroxy-3',5'-dimethoxyphenyl)ethenyl]-5-methyl-1H-pyrazole-1-acetic acid]", "IC50": "> 30"}, {"smiles": "Cc1cc(C=Cc2cc(C(C)(C)C)c(O)c(C(C)(C)C)c2)n(CC(=O)O)n1", "note": "[Example 10P, 5-[β-(4'-Hydroxy-3',5'-di-t-butylphenyl)ethenyl]-3-methyl-1H-pyrazole-1-acetic acid]", "IC50": "> 30"}, {"smiles": "Cc1cc(C(=Cc2cc(C)c(O)c(C)c2)C(=O)O)on1", "note": "[Example 52, 5-[α-carboxy-β-(4'-hydroxy-3',5'-dimethylphenyl)ethenyl]-3-methylisoxazole]", "IC50": "> 20"}, {"smiles": "Cc1cc(C=Cc2cc(C(C)(C)C)c(O)c(C(C)(C)C)c2)nn1CC(=O)O", "note": "[Example 10Q, 3-[β-(4'-Hydroxy-3',5'-di-t-butylphenyl)ethenyl]-5-methyl-1H-pyrazole-1-acetic acid]", "IC50": "> 30"}, {"smiles": "COc1cc(C=Cc2cc(C)nn2CC(=O)O)cc(OC)c1O", "note": "[Example 10M, 5-[β-(4'-Hydroxy-3',5'-dimethoxyphenyl)ethenyl]-3-methyl-1H-pyrazole-1-acetic acid]", "IC50": "> 30"}, {"smiles": "COC(=O)Cn1nc(C)cc1C=Cc1cc(C(C)(C)C)c(O)c(C(C)(C)C)c1", "note": "[Example 10G-2]", "IC50": "> 30"}, {"smiles": "COC(=O)Cn1nc(C)cc1C=Cc1ccc(O)c(OC)c1", "note": "[Example 10I, 5-[β-(4'-Hydroxy-3'-methoxyphenyl)ethenyl]-3-methyl-1H-pyrazole-1-acetic acid methyl ester]", "IC50": "> 25"}]}]}
